According to a melting point compilation (Tetko et al.; mined from patent text by program, amines drawn as free bases though some values may be those of a salt):

| melting point [°C] | Structure (SMILES) |
| --- | --- |
| 58 to 60 | CCOC(OCC)c1cc(NC(c2ccccc2)(c2ccccc2)c2ccccc2)c(F)c(-c2ccc(C(F)(F)F)nc2)n1 |
| 54 to 56.5 | CNc1ccc2cccc(OCCOc3nccnc3N3CCNCC3)c2n1 |
| 81 to 83 | Nc1ccccc1COc1ccn(-c2ccc(Cl)cc2)n1 |
| 194 to 195 | O=C(O)C1Cc2c([nH]c3ccccc23)CN1C(=S)SCc1ccc([N+](=O)[O-])cc1 (centres undefined) |
| 164 to 165 | Cc1ccc(CSc2c(O)cc(-c3ccccc3)oc2=O)cc1 |
| 108 to 109 | CC(C)(C)OC(=O)N[C@H](C(=O)Br)c1ccccc1 |
| 198 | N=C(N)c1ccc(N2CC(CN3CCCC(C(=O)O)C3)OC2=O)cc1 (centres undefined) |
| 65 to 70 | CCC(Cl)c1nc2c(C(F)(F)F)cccc2c(=O)o1 (centres undefined) |
| 144 to 145 | CC(C#CC1CCC1)N(O)C(N)=O (centres undefined) |
| 91 to 93 | COc1ccnc(C(=O)Nc2ccc(Oc3ccc(C(F)(F)F)cc3)cc2)c1O |
| 112 to 113 | CCCSCc1cccc(-c2nc(=O)c3ccccc3s2)n1 |
| 166 | CC(=O)Nc1ccc(SC(CCc2ccc(Cl)cc2)Cn2ccnc2)cc1 (centres undefined) |
| 133 to 135 | CCN=c1[nH]c2ccccc2c2nc(-c3ccco3)nn12 |
| 109 to 113 | CC(Cc1cc2ccccc2[nH]1)(NC(=O)OC1C2CC3CC(C2)CC1C3)C(=O)NCC(NC(=O)CCC(=O)OCc1ccccc1)c1ccccc1 (centres undefined) |
| 138 to 140 | COC(=O)c1ccc(OC)c(NC(=O)C[C@H]2O[C@H](c3cccc(OC)c3OC)c3cc(Cl)ccc3N(CC(C)(C)COC(C)=O)C2=O)c1 |
| 141 to 143 | [N-]=[N+]=NC1CCc2ccccc2N(c2ccccc2)C1=O (centres undefined) |
| 99 to 101 | CN1c2ccccc2CCC1c1ccccc1 (centres undefined) |
| 112 to 113 | CCCC1(C)OC(=O)C(c2ccc(F)cc2)=C1c1ccc(S(C)(=O)=O)cc1 (centres undefined) |
| 130 | CCCCc1nc2c(N)nc(C)c(C)c2n1CCCCCS(N)(=O)=O |
| 130 | OC1CSC(Oc2cccnc2-c2cccs2)C(O)C1O (centres undefined) |
| 98 to 101 | C[C@@H]1CSC(=O)[C@@H]2CCCN2C1=O |
| 155 to 156 | Cn1c(S)nnc1COCC(=O)O |
| 116 to 117 | CCSc1nc(-c2ccco2)c2ncn(Cc3ccc(OC)cc3)c2n1 |

| melting point [°C] | Structure (SMILES) |
| --- | --- |
| 74 to 75 | CC(=O)c1cc(Cl)ccc1Nc1ccc(OCc2ccccc2)cc1 |
| 163 | CN(C)c1ccccc1CC(=O)N1C[C@@H]2SCCC(c3ccccc3)(c3ccccc3)[C@@H]2C1 (racemic) |
| 148 to 150 | CC(c1ccccc1N1CCCCC1)C(C(N)=O)c1ccc(C(=O)N2CCOCC2)cc1 (centres undefined) |
| 72 to 74 | CC(C)(C)OC(=O)NCCCSc1ccncc1 |
| 80 | COC(=O)c1ccc(C(O)c2cc3cc(C(F)(F)F)ccc3n2S(=O)(=O)c2ccc3c(c2)N(C)CCO3)cc1 (centres undefined) |
| 147 to 149 | O=C1C=C(C2CCC(c3ccc(Cl)cc3)CC2)C(=O)c2ccccc21 (centres undefined) |
| 247 to 249 | NC(=O)C1CCCc2c(C(=O)O)cccc21 (centres undefined) |
| 160 to 165 | O=C(O)c1cc(COc2ccccc2)cc(Cn2cc(C3c4ccccc4C=Cc4ccccc43)c(=S)[nH]c2=O)c1 |
| 107 | CCC1(C(=O)Nc2ccc(OC)cc2)CCCCC1C (centres undefined) |
| 50 to 51 | Cc1ccc(CCCC(=O)O)cc1C |
| 121 to 123 | CSc1noc(-c2ccc(OCCCOc3ccccc3)cc2)c1C#N |
| 285 to 287 | O=C(O)c1ccc2nc3n(c(=O)c2c1)CCC3=Cc1ccccc1 |
| 188 to 190 | CC1(C)C(=O)N(c2ccc(C#N)c(C(F)(F)F)c2)C(=O)N1CC=CCN1C(=O)N(c2ccc(C#N)c(C(F)(F)F)c2)C(=O)C1(C)C |
| 140 to 141 | CN1C(=O)C(O)N(C2CCCCC2)C1=O (centres undefined) |
| 251 to 252 | CNC(=O)c1cc(OC)c(-c2ccc(C[C@H](NC(=O)c3c(Cl)cccc3Cl)C(=O)O)cc2)c(OC)c1 |
| 267 | COc1cc(N)ccc1NC1=CC(=O)C(N)=CC1=O |
| 88 to 89 | Clc1ccc(-c2nc(COc3ccc(CCCn4ccnc4)cc3)co2)o1 |
| 268 to 271 | O=C(O)c1ccc(CNS(=O)(=O)c2ccc(Br)cc2)cc1 |
| 72 to 73 | O=C(O)C(=O)c1ccc(OCCc2ccccc2)cc1 |
| 248 to 251 | Cc1cccc(NC(=O)c2ccc(C(=O)N3Cc4ccccc4Cc4ccccc43)cc2)c1C |
| 133 to 135 | Cc1ccc(CC2CCN(C(=O)C(=O)O)CC2)cc1 |
| 80 to 82 | CCOC(=O)CN1Cc2ccccc2C[C@H](NC(=O)OCc2ccccc2)C1=O |
| 198 to 202 | O=C(c1ccc(F)cc1)C1CCN(CCCn2c(=O)[nH]c3cc(Cl)c(Cl)cc32)CC1 |

| melting point [°C] | Structure (SMILES) |
| --- | --- |
| 188 | Fc1ccc(-c2cc(C(F)(F)F)n3cnc(-c4cccnc4)c3n2)cc1Cl |
| 68 to 70 | OCc1ccccc1-c1cc(-c2ccccc2)on1 |
| 144 to 145 | NC(=O)N1CC(c2ccccc2)c2ccccc21 (centres undefined) |
| 270 to 271 | CCOC(=O)CCCCCOc1cc2ccc(-c3ccc(C(=O)O)cc3)cc2cc1C12CC3CC(CC(C3)C1)C2 |
| 144 to 145 | CC1Sc2nccn2C1(C)C(O)CCc1ccco1 (centres undefined) |
| 210 to 212 | Oc1c(Br)c(Br)c(Cl)c(Br)c1Br |
| 61 to 67 | O=C(CC1CCCCC1)c1ccccc1 |
| 175 to 177 | CS(=O)(=O)c1ccc(-n2nc(C(F)(F)F)cc2-c2ccc(-c3cocn3)cc2)cc1 |
| 198 to 200 | CC(C)(C)c1cc(CCc2ccccc2NC(=O)NC2CCCCC2)cc(C(C)(C)C)c1O |
| 127 to 132 | COc1cc2c(cc1O)CC(C)N(Cc1cc(OC)c(OC)c(OC)c1)C2 (centres undefined) |
| 119 to 120 | Cc1cccc(N2CCN(CCc3c(C)nc4ccc(Cl)cn4c3=O)CC2)c1 |
| 260 to 262 | Cn1cc2c(C3C(=O)Nc4ccc(Br)cc43)nc(NCCN)nc2n1 (centres undefined) |
| 203 to 204 | CC(C)CN1C(=O)c2cnc(-c3ccccc3)nc2Nc2ccccc21 |
| 213 to 215 | COc1ccc(N2CCOCC2)c2sc(-c3ncc(-c4sc5ccccc5c4C)[nH]3)nc12 |
| 191 to 192 | COc1cc(Nc2nccc(-c3cccc(O)c3)n2)cc(OC)c1OC |
| 159 to 160 | CC(C)(C)c1ccnc(-c2cc(C(C)(C)C)ccn2)c1 |
| 158 | CC(C)(C)c1cccc(S(=O)(=O)n2c(Cc3ccc(C(=O)O)cc3)c(F)c3cc(C(F)(F)F)ccc32)c1 |
| 112 to 114 | COC(=O)C(Cc1ccc([N+](=O)[O-])cc1)NC(=O)NCc1cccc(Oc2ccccc2)c1 (single isomer, unassigned; (+)) |
| 155 to 159 | O=c1cc(-c2ccccc2)oc2cc(OCCn3ccnc3)ccc12 |
| 142 to 144 | CCC(C)(C)c1ccc(OCCCCSC2C(=O)N(c3c(Cl)cc(Cl)cc3Cl)N=C2Nc2ccc(Cl)cc2Cl)c(C(C)(C)CC)c1 (centres undefined) |
| 101 to 103 | COc1cc(Cl)nc(Nc2ccccc2)n1 |

| Structure (SMILES) | melting point [°C] |
| --- | --- |
| C=CCC12CCN=C1C(Br)Cc1ccc(OC)cc12 (centres undefined) | 112 to 117 |
| COC(=O)c1cnc(CO)n1C(c1ccccc1)c1ccccc1 | 160 |
